In US20110071096A1, “Macrolides Having Antibiotic Activity” (IDEXX Laboratories, Inc., priority 2009, published 2011):
Converted amounts (≈) assume the structure as drawn. Marks after values point to notes of the source that are not given here.

Columns and labels:
[1] = system: Bordetella bronchispetica; test: Minimum inhibitory concentration, gram negative bacteria; type: cell-based
Staphylococcus aureus = test: Minimum inhibitory concentration, gram positive bacteria; type: cell-based
Clostridium perfringens [2] = details: gram positive; from J. F. Presscott, Antimicrobial Therapy in Veterinary Medicine, 3rd ed.; cited from earlier work
Pasteurella multocida [3] = details: gram negative; from J. F. Presscott, Antimicrobial Therapy in Veterinary Medicine, 3rd ed.; cited from earlier work
Streptococcus pneumonia [4] = details: gram positive; from J. Med. Chem., 44, 4137-4156 (2001); cited from earlier work
Enterococcus faecalis [5] = details: gram positive; from J. Clin. Micro., 26: 11, 2415-2420 (1988); cited from earlier work
Bacillus subtilis = test: Minimum inhibitory concentration, gram positive bacteria; type: cell-based
Bacteroides fragilis [6] = details: gram negative; from J. F. Presscott, Antimicrobial Therapy in Veterinary Medicine, 3rd ed.; cited from earlier work
Escheria Coli = test: Minimum inhibitory concentration, gram negative bacteria; type: cell-based
Streptococcus pyogenes [7] = details: gram positive; from J. Med. Chem., 44, 4137-4156 (2001); cited from earlier work
Bacteroides fragilis [8] = test: Minimum inhibitory concentration, gram negative bacteria; type: cell-based
Streptococcus pyogenes [9] = test: Minimum inhibitory concentration, gram positive bacteria; type: cell-based
Klebsiella Pneumonia = test: Minimum inhibitory concentration, gram negative bacteria; type: cell-based; details: Klebsiella pneumoniae
Clostridium perfringens [10] = test: microbe, parasite or virus in culture; type: cell-based; details: read-out: Minimum Inhibitory Concentration Clostridium perfringens
Pasteurella multocida [11] = test: Minimum inhibitory concentration, gram negative bacteria; type: cell-based
Enterococcus faecalis [12] = test: Minimum inhibitory concentration, gram positive bacteria; type: cell-based
Streptococcus pneumonia [13] = test: as above; type: cell-based; details: Streptococcus pneumoniae

Compound | MIC [1] | MIC (Staphylococcus aureus) | Minimum Inhibitory Concentration Clostridium perfringens (Clostridium perfringens [2]) | Minimum Inhibitory Concentration Pasteurella multocida (Pasteurella multocida [3]) | Minimum Inhibitory Concentration Streptococcus pneumonia (Streptococcus pneumonia [4]) | Minimum Inhibitory Concentration Enterococcus faecalis (Enterococcus faecalis [5]) | MIC (Bacillus subtilis) | Minimum Inhibitory Concentration Bacteroides fragilis (Bacteroides fragilis [6]) | MIC (Escheria Coli) | Minimum Inhibitory Concentration Streptococcus pyogenes (Streptococcus pyogenes [7]) | MIC (Bacteroides fragilis [8]) | MIC (Streptococcus pyogenes [9]) | MIC (Klebsiella Pneumonia) | MIC (Clostridium perfringens [10]) | MIC (Pasteurella multocida [11]) | MIC (Enterococcus faecalis [12]) | MIC (Streptococcus pneumonia [13])
CC[C@H]1OC(=O)[C@H](C)[C@@H](O[C@H]2C[C@@](C)(OC)[C@@H](O)[C@H](C)O2)[C@H](C)[C@@H](O[C@@H]2O[C@H](C)C[C@H](N(C)C)[C@H]2O)[C@](C)(O)C[C@@H](C)C(=O)[C@H](C)[C@@H](O)[C@]1(C)O [Erythromycin] | 4 µg/mL (≈ 5.45 µM) | 0.25 µg/mL (≈ 0.341 µM) | 4* μg/mL | 4* μg/mL | 0.06^(1) μg/mL | 2.7^(3) μg/mL | 0.25 µg/mL (≈ 0.341 µM) | >8* μg/mL | 32 µg/mL (≈ 43.6 µM) | 0.06^(1) μg/mL |  |  |  |  |  |  | 
CC[C@H]1OC(=O)[C@H](C)[C@@H](O[C@H]2C[C@@](C)(OC)[C@@H](O)[C@H](C)O2)[C@H](C)[C@@H](O[C@@H]2O[C@H](C)C[C@H](N(C)C)[C@H]2O)[C@](C)(O)C[C@@H](C)/C(=N\OCOCCOC)[C@H](C)[C@@H](O)[C@]1(C)O [Roxithromycin] | 1 µg/mL (≈ 1.19 µM) | 0.25 µg/mL (≈ 0.299 µM) |  |  |  |  | 0.25 µg/mL (≈ 0.299 µM) |  | 32 µg/mL (≈ 38.2 µM) |  | < 2 µg/mL | 0.25 µg/mL (≈ 0.299 µM) | 32 µg/mL (≈ 38.2 µM) | 2 µg/mL (≈ 2.39 µM) | 1 µg/mL (≈ 1.19 µM) | 8 µg/mL (≈ 9.56 µM) | 0.25 µg/mL (≈ 0.299 µM)
CC[C@H]1OC(=O)[C@H](C)[C@@H](OC2CC(C)(OC)C(OCCCN(C)C)C(C)O2)[C@H](C)[C@@H](OC2OC(C)CC(N(C)C)C2O)[C@](C)(OC)C[C@@H](C)C(=O)[C@H](C)[C@@H](O)[C@]1(C)O (stereo partly drawn) [Formula 2, 4″-DMAP-Clarithromycin ether] | 4 µg/mL | 0.25 µg/mL |  |  |  |  | 0.25 µg/mL |  | 32 µg/mL |  | 2 µg/mL | 0.25 µg/mL | 32 µg/mL | 2 µg/mL | 1 µg/mL | 8 µg/mL | 0.25 µg/mL
CC[C@H]1OC(=O)[C@H](C)[C@@H](O[C@H]2C[C@@](C)(OC)[C@@H](O)[C@H](C)O2)[C@H](C)[C@@H](O[C@@H]2O[C@H](C)C[C@H](N(C)C)[C@H]2O)[C@](C)(OC)C[C@@H](C)C(=O)[C@H](C)[C@@H](O)[C@]1(C)O [Clarithromycin] | 4 µg/mL (≈ 5.35 µM) | < 0.25 µg/mL | 4* μg/mL | 2* μg/mL | 0.03^(1) μg/mL | 2.7^(3) μg/mL | < 0.25 µg/mL | 16* μg/mL | 32 µg/mL (≈ 42.8 µM) | 0.06^(1) μg/mL |  |  |  |  |  |  | 
